Assay results from patent US20240133877A1, “PRODUCTS AND METHODS FOR MONITORING ADHERENCE TO NUCLEOSIDE REVERSE TRANSCRIPTASE INHIBITOR THERAPY” (priority 2017, published 2024).

Assays:
[1] = test system: pAb 313; assay: Cross reactivity of compounds spiked in buffer with pAb 313; type: binding, rabbit; conditions: compound spiked in buffer
Protocol: (§1) To identify which compounds were causing cross reactivity, potentially cross-reactive compounds (compounds with similar chemical structure to TFV) were spiked in buffer and tested with the pAbs. We tested 11 compounds, and their percent cross reactivity was calculated for each of the substances in Table 3 to each antibody.

[2] = test system: pAb 312; assay: Cross reactivity of compounds spiked in buffer with pAb 312; type: binding, rabbit; conditions: compound spiked in buffer
Protocol: as §1

| SMILES | Cross Reactivity of 313 (vs TFV standard) [1] | Cross Reactivity of 312 (vs TFV standard) [2] |
| --- | --- | --- |
| Nc1ncnc2c1ncn2[C@H]1C[C@H](O)[C@@H](COP(=O)(O)OP(=O)(O)OP(=O)(O)O)O1 [2′ Deoxyadenosine 5′ Triphosphate] | None | None |
| Nc1nc2c(ncn2[C@H]2C[C@H](O)[C@@H](COP(=O)(O)OP(=O)(O)OP(=O)(O)O)O2)c(=O)[nH]1 [2′Deoxyguanosine 5′ Triphosphate] | None | None |
| Nc1ncnc2c1ncn2CCOCP(=O)(O)O [Adefovir] | Reactive (0.1%) | Reactive (0.1%) |
| Nc1ncnc2c1ncn2[C@@H]1O[C@H](CO)[C@@H](OP(=O)(O)O)[C@H]1O [Adenosine 3′ Monophosphate] | Reactive (0.1%) | Reactive (0.1%) |
| Nc1ncnc2c1ncn2[C@@H]1O[C@H](COP(=O)(O)O)[C@@H](O)[C@H]1O.O [Adenosine 5′ Monophosphate Monohydrate] | None | None |
| Nc1ncnc2c1ncn2[C@@H]1O[C@H](COP(=O)([O-])OP(=O)([O-])OP(=O)(O)O)[C@@H](O)[C@H]1O.[Na+].[Na+] [Adenosine 5′ Triphosphate Disodium] | None | None |
